{
  "source": "paper PMC10787407",
  "about": "“Regulation of polysaccharide in Wu‐tou decoction on intestinal microflora and pharmacokinetics of small molecular compounds in AIA rats” (Chinese Medicine, 2024)",
  "key": {"in vivo": {"test": "in vivo", "details": "Sprague-Dawley, rat, po, 39.2 g/kg/day"}, "[1]": {"details": "rat, in vivo"}, "[2]": {"details": "Sprague-Dawley, po, 39.2 g/kg/day"}},
  "note": "Read-outs that look alike come from different tables or passages of the source.",
  "data": [
    {"smiles": "C=C1[C@H]2C[C@@]3([C@@H]1O)[C@@H](CC2=O)[C@]12[C@@H]4C[C@H]3[C@H]1N(CC)C[C@]4(C)CC[C@@H]2O", "note": "[Songorine]", "values": [
      {"measurement": "AUC 0-t", "setting": "in vivo; AUC 0-t", "value": "60.2 ± 6.5", "unit": "ng·h/mL"},
      {"measurement": "AUC(0-inf)", "setting": "in vivo; AUC 0-∞", "value": "64.6 ± 6.04", "unit": "ng·h/mL"},
      {"measurement": "Cmax", "setting": "in vivo; C max", "value": "14 ± 2.32", "unit": "ng/mL"},
      {"measurement": "Tmax", "setting": "in vivo; T max", "value": "0.667 ± 0.236", "unit": "h"},
      {"measurement": "half-life", "setting": "in vivo; t 1/2", "value": "2.64 ± 0.461", "unit": "h"},
      {"measurement": "AUC 0-t", "setting": "[1]; [2]", "value": "80.730 ± 5.544", "unit": "ng·h/mL"},
      {"measurement": "AUC 0-∞", "setting": "[1]; [2]", "value": "84.255 ± 5.364", "unit": "ng·h/mL"},
      {"measurement": "C max", "setting": "[1]; [2]", "value": "17.665 ± 1.910", "unit": "ng/mL"},
      {"measurement": "T max", "setting": "[1]; [2]", "value": "0.917 ± 0.773", "unit": "h"},
      {"measurement": "t 1/2", "setting": "[1]; [2]", "value": "2.522 ± 0.269", "unit": "h"},
      {"measurement": "Absorption under the intervention of PS", "setting": "[1]", "value": "increased"},
      {"measurement": "Change of AUC 0-t after oral PS", "setting": "[1]; po", "value": "increased"},
      {"measurement": "Change of AUC 0-∞ after oral PS", "setting": "[1]; po", "value": "increased"}
    ]}
  ]
}
